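Protocol summary: plate cells (96-well), add compound at 5 concentrations, incubate 48 h, interpolate endpoints linearly. GI50: concentration for 50% inhibition of growth. TGI denotes the concentration required for complete inhibition of growth.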 Where only a bound is given, the exact number is not on record here.

The values that follow come from PubChem BioAssay (NCI).

Test systems include A549 NSCLC; EKVX NSCLC; HOP-62 NSCLC; MDA-MB-231 breast; OVCAR-5 ovarian; SK-MEL-28 melanoma; SNB-75 CNS; SR leukemia; SW-620 colon; U251 CNS.
Common to all, as to assay: inhibition of tumour cell growth, NCI panel, 48 h

As to `OCCCN=NNc1ccc(-c2nc3ccccc3[nH]2)cc1`, the GI50 with A549 NSCLC was 2620 nM; with EKVX NSCLC, 15500 nM; in the assay on HOP-62 NSCLC it was 50500 nM; in the assay on MDA-MB-231 breast it was 3310 nM; with OVCAR-5 ovarian, > 100000 nM; in the assay with SK-MEL-28 melanoma, 2470 nM. Besides, the GI50 with SNB-75 CNS is 6070 nM; in the assay with SR leukemia it was 29900 nM; in the assay on SW-620 colon, 3040 nM; with U251 CNS it was 2070 nM. Further, the TGI in the assay with A549 NSCLC was > 100000 nM; with EKVX NSCLC it was 52600 nM; in the assay with HOP-62 NSCLC, 71300 nM; with MDA-MB-231 breast, 12700 nM; in the assay on OVCAR-5 ovarian, > 100000 nM; in the assay with SK-MEL-28 melanoma it was 6460 nM. Besides, the TGI in the assay with SNB-75 CNS was 38600 nM; in the assay with SR leukemia, > 100000 nM; with SW-620 colon it was > 100000 nM; in the assay with U251 CNS, 4760 nM.
As for `CC(=O)Nc1ccc(Sc2ccc([N+](=O)[O-])o2)cc1`, the GI50 in the assay with A549 NSCLC is 6370 nM; in the assay with EKVX NSCLC, 4460 nM; in the assay on HOP-62 NSCLC it was 3370 nM; in the assay on MDA-MB-231 breast it was 2180 nM; in the assay with OVCAR-5 ovarian, 2340 nM; with SK-MEL-28 melanoma it was 1750 nM. The GI50 with SNB-75 CNS is 2780 nM; in the assay on SR leukemia, 2800 nM; in the assay with SW-620 colon, 767 nM; with U251 CNS, 3060 nM. Also, the TGI in the assay on A549 NSCLC worked out at 23300 nM; in the assay with EKVX NSCLC it was 25200 nM; in the assay with HOP-62 NSCLC, 10500 nM; in the assay on MDA-MB-231 breast, 4950 nM; in the assay on OVCAR-5 ovarian, 5900 nM; in the assay with SK-MEL-28 melanoma, 3600 nM. For the same compound, the TGI with SNB-75 CNS came to 12800 nM; with SR leukemia it was 12600 nM; in the assay with SW-620 colon, 2220 nM; with U251 CNS, 11000 nM.
For the compound `C=C1C[C@](OC)([C@H](O)C(=O)N[C@@H](OC)[C@@H]2C[C@@H](O)C(C)(C)[C@@H](C[C@@H](COC)OC)O2)O[C@H](C)[C@@H]1C`, the GI50 is 1.29 nM in the assay with A549 NSCLC; 1.62 nM in the assay on EKVX NSCLC; 2.11 nM in the assay on HOP-62 NSCLC; 2.86 nM in the assay on MDA-MB-231 breast; 1.82 nM in the assay with OVCAR-5 ovarian; 1.29 nM in the assay with SK-MEL-28 melanoma. For the same compound, the results for the GI50 with SNB-75 CNS, with SW-620 colon and in the assay on U251 CNS were 2.73 nM, 1.57 nM and 1.75 nM, respectively. Moreover, the TGI was determined as 5.58 nM in the assay with A549 NSCLC; 6.67 nM in the assay with EKVX NSCLC; 10.2 nM with HOP-62 NSCLC; 8.37 nM in the assay with MDA-MB-231 breast; 6.89 nM in the assay on OVCAR-5 ovarian; 3.83 nM in the assay with SK-MEL-28 melanoma. Also, the TGI was 8.25 nM in the assay on SNB-75 CNS, > 1000 nM in the assay on SR leukemia, 5.08 nM in the assay with SW-620 colon and 7.69 nM with U251 CNS.
`COc1cccc(C2C(C#N)=C(N)Oc3cc(N)ccc32)c1` (configuration not stated): the GI50 was 572 nM with A549 NSCLC; 854 nM with EKVX NSCLC; 692 nM in the assay with HOP-62 NSCLC; 1290 nM in the assay on MDA-MB-231 breast; 1430 nM in the assay with OVCAR-5 ovarian; 663 nM in the assay on SK-MEL-28 melanoma. In addition, the GI50 is 293 nM with SNB-75 CNS, 300 nM in the assay with SR leukemia, 312 nM in the assay with SW-620 colon and 369 nM in the assay on U251 CNS. The TGI in the assay with A549 NSCLC was > 100000 nM; in the assay with EKVX NSCLC, > 100000 nM; in the assay on HOP-62 NSCLC it was > 100000 nM; in the assay with MDA-MB-231 breast, 59600 nM; in the assay with OVCAR-5 ovarian, > 100000 nM; with SK-MEL-28 melanoma, > 100000 nM. Further, the TGI in the assay with SNB-75 CNS, with SR leukemia and with SW-620 colon was > 100000 nM each time.
Take `CC(C)CCOc1ccc(-c2n[nH]c(C(F)(F)F)c2-c2cncc(C#N)c2)c(O)c1`: the GI50 is 2240 nM with A549 NSCLC; 2280 nM in the assay with EKVX NSCLC; 2610 nM in the assay with HOP-62 NSCLC; 2430 nM in the assay with MDA-MB-231 breast; 3210 nM with OVCAR-5 ovarian; 2170 nM in the assay on SK-MEL-28 melanoma. The GI50 with SNB-75 CNS is 2770 nM; with SR leukemia it was 2010 nM; in the assay with SW-620 colon it was 3440 nM; with U251 CNS it was 2000 nM. For the same compound, the TGI was 12000 nM in the assay with A549 NSCLC; 13200 nM in the assay on EKVX NSCLC; 7650 nM with HOP-62 NSCLC; 6430 nM with MDA-MB-231 breast; > 100000 nM with OVCAR-5 ovarian; > 100000 nM in the assay on SK-MEL-28 melanoma. Also, the TGI with SNB-75 CNS is 14600 nM; in the assay with SR leukemia, 11800 nM; in the assay on SW-620 colon it was > 100000 nM; in the assay with U251 CNS it was 8400 nM.
With `CCN(CC)CCCNc1cccc2c(SCc3ccccc3)ccnc12`, the GI50 in the assay on A549 NSCLC is 1730 nM; in the assay with EKVX NSCLC it was 2240 nM; in the assay with HOP-62 NSCLC, 1610 nM; in the assay on MDA-MB-231 breast, 1010 nM; in the assay on OVCAR-5 ovarian, 2000 nM; in the assay with SK-MEL-28 melanoma, 1990 nM. Moreover, the GI50 with SNB-75 CNS is 1600 nM; with SR leukemia it was 1790 nM; with SW-620 colon, 1700 nM; in the assay with U251 CNS, 1690 nM. The TGI in the assay with A549 NSCLC is 3330 nM; in the assay with EKVX NSCLC, 6710 nM; with HOP-62 NSCLC, 3050 nM; with MDA-MB-231 breast, 2480 nM; with OVCAR-5 ovarian it was 3760 nM; in the assay on SK-MEL-28 melanoma, 3500 nM. For the same compound, the TGI in the assay on SNB-75 CNS turned out to be 3220 nM; in the assay with SR leukemia, 4470 nM; in the assay with SW-620 colon, 3460 nM; in the assay with U251 CNS, 3250 nM.
`ClC1=C(Cl)C(Cl)=C(Cl)C1=C/C=C/c1ccccc1`: the GI50 was 339 nM in the assay with A549 NSCLC; 215 nM in the assay on EKVX NSCLC; 1200 nM with HOP-62 NSCLC; 344 nM with MDA-MB-231 breast; 338 nM in the assay on OVCAR-5 ovarian; 249 nM with SK-MEL-28 melanoma. The GI50 in the assay on SNB-75 CNS was 251 nM; in the assay on SR leukemia, 138 nM; in the assay on SW-620 colon it was 299 nM; with U251 CNS, 346 nM. Moreover, the TGI with A549 NSCLC is 1240 nM; in the assay with EKVX NSCLC, 1230 nM; in the assay on HOP-62 NSCLC, 4170 nM; with MDA-MB-231 breast, > 100000 nM; in the assay on OVCAR-5 ovarian, 968 nM; with SK-MEL-28 melanoma, 597 nM. Also, the TGI in the assay on SNB-75 CNS amounted to 1850 nM; in the assay with SW-620 colon, 869 nM; in the assay on U251 CNS, 1370 nM.
Consider `CCSCC(N)C(=O)O` (configuration not stated), for which the TGI with A549 NSCLC, in the assay with EKVX NSCLC, with HOP-62 NSCLC, with MDA-MB-231 breast, in the assay with OVCAR-5 ovarian and in the assay on SK-MEL-28 melanoma was > 100000 nM in each case. Also, the TGI in the assay with SNB-75 CNS, in the assay with SR leukemia, with SW-620 colon and in the assay with U251 CNS was > 100000 nM throughout.
